Series [1] concerns the target T1, Tyrosine-protein kinase BTK (Homo sapiens, UniProt Q06187). Kind of series: Inhibition of BTK (unknown origin).
Series [2] deals with T1, Tyrosine-protein kinase BTK. Kind of series: Induction of BTK degradation in human MINO cells incubated for 24 hrs by Western blot. The format is cell-based. The conditions noted are these: dose 1-1000 nM, DDE = dose-dependent effect.
The target is the same in series [3]. Description: Induction of BTK degradation in human MINO cells at 1000 nM incubated for 24 hrs by Western blot. The format is cell-based.
Series [4] can be described thus: Tmax in ICR mouse at 100 mg/kg, po measured upto 48 hrs by LC/MS analysis. The format is ADME, organism-based. The conditions noted are these: in vivo.
A short description of series [5]: AUC (0 to infinity) in ICR mouse at 100 mg/kg, po measured upto 48 hrs by LC/MS analysis. The format is ADME, organism-based. Details: time < 48 hrs, dose 100 mg/kg, route po. The conditions noted are these: in vivo.
Series [6] can be described thus: Cmax in Sprague-Dawley rat at 5 to 10 mg/kg, po administered as cassette dose measured upto 24 hrs by LC-MS analysis. The format is ADME, organism-based. Details: time < 24 hrs, route po. The conditions noted are these: in vivo, dose 5-10 mg/kg.
Series [7] in a line: Half life in Sprague-Dawley rat at 5 to 10 mg/kg, po administered as cassette dose measured upto 24 hrs by LC-MS analysis. The format is ADME, organism-based. The note with it: in vivo, dose 5-10 mg/kg.
In series [8] the test system is JeKo-1. Description: cells. The note with it: Homo sapiens.
Series [9] is described as follows: Dose normalized AUC (0 to t) in Sprague-Dawley rat at 5 to 10 mg/kg, po administered as cassette dose measured upto 24 hrs by LC-MS analysis. The format is ADME, organism-based. The note with it: in vivo, dose 5-10 mg/kg.
A short description of series [10]: AUC (0 to t) in ICR mouse at 100 mg/kg, po measured upto 48 hrs by LC/MS analysis. Details: time < 48 hrs, dose 100 mg/kg, route po. The conditions noted are these: in vivo. The format is ADME, organism-based.
Series [11] in a line: Half life in ICR mouse at 100 mg/kg, po measured upto 48 hrs by LC/MS analysis. The format is ADME, organism-based. The note with it: in vivo.
The test system of series [12] is JeKo-1. Kind of series: cells. The note with it: Homo sapiens. This is another data set of the same source.
Series [13] is described as follows: AUC (0 to t) in Sprague-Dawley rat at 5 to 10 mg/kg, po administered as cassette dose measured upto 24 hrs by LC-MS analysis. The format is ADME, organism-based. The conditions noted are these: in vivo, dose 5-10 mg/kg. More on the design: time < 24 hrs, route po.
Series [14] is described as follows: Tmax in Sprague-Dawley rat at 5 to 10 mg/kg, po administered as cassette dose measured upto 24 hrs by LC-MS analysis. The format is ADME, organism-based. The note with it: in vivo, dose 5-10 mg/kg.
A short description of series [15]: Cmax in ICR mouse at 100 mg/kg, po measured upto 48 hrs by LC/MS analysis. The format is ADME, organism-based. Details: dose 100 mg/kg, time < 48 hrs, route po. The conditions noted are these: in vivo.
Another series has as its system OCI-Ly10. Kind of series: Antitumor activity against human OCILY10 cells xenografted in SCID mouse assessed as tumor growth inhibition at 10 mg/kg, po qd measured after 17 days relative to control. The format is functional. Details: scale not given: the % may be the effect or the level left. The note with it: time 17 day.

Structures are written as SMILES.

T1 sequence (Q06187 whole entry): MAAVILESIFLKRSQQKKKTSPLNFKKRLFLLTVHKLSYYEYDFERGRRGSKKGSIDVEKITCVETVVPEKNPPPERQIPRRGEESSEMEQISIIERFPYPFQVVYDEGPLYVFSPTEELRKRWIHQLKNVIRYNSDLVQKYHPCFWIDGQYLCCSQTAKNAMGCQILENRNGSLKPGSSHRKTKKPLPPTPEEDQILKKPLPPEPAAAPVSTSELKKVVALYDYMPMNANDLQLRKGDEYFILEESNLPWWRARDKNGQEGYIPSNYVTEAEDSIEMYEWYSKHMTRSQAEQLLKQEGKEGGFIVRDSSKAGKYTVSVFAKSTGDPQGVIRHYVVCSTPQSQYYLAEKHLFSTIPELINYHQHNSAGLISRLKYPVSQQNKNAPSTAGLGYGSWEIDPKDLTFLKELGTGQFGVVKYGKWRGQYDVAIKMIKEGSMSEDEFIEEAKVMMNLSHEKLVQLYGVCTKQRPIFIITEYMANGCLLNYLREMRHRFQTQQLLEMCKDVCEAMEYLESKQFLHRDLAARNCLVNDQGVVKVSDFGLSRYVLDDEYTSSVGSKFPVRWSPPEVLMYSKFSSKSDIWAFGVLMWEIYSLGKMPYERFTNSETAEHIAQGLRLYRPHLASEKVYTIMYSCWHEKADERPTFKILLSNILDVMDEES

In series [1], `Nc1ncnc2c1c(-c1ccc(Oc3ccccc3)cc1)nn2[C@@H]1CCCN(C(=O)CCCC(=O)NCC#CCN2CCN(CC#Cc3ccc4c(c3)CN(C3CCC(=O)NC3=O)C4=O)CC2)C1` (stereo partly drawn) returned an IC50 of 9 nM. The figures for the Activity entry in [2] and in [3] were “Dde” and over 50%, respectively.

With `Nc1ncnc2c1c(-c1ccc(Oc3ccccc3)cc1)nn2[C@@H]1CCCN(C(=O)[C@H]2CCCC[C@H]2C(=O)NCC#CCN2CCN(CC#Cc3ccc4c(c3)CN(C3CCC(=O)NC3=O)C4=O)CC2)C1` (stereo partly drawn), the results for the Tmax in series [4] and in series [14] were 42 min and 36 min, respectively. In addition, the results for the IC50 (in series [1]; in the series on JeKo-1 [8]; in the series with JeKo-1 [12]) were 9 nM, over 20000 nM and 792 nM, respectively. This compound also registered an AUC(0-inf) in series [5] of 81 ng·h/mL. Besides, the Cmax in series [6] is 125 ng/mL; in [15] it was 52 ng/mL. Further, the half-life was 84 min in series [7] and 60 min in series [11]. Further, the AUCt/dose in series [9] was 25 ng·h/mL/mg. Besides, the AUC(0-t) at 48 h in series [10] stood at 62 ng·h/mL. In [2], the Activity result was “Dde”. The compound further came in with an AUC(0-t) at 24 h in series [13] of 247 ng·h/mL.

In the case of `C=CC(=O)N1CCC[C@@H](n2nc(-c3ccc(Oc4ccccc4)cc3)c3c(N)ncnc32)C1` [IBRUTINIB], in the series with OCI-Ly10, the Activity worked out at 50.7%.

The record behind these values is ChEMBL document CHEMBL5131541, “Structural Feature Analyzation Strategies toward Discovery of Orally Bioavailable PROTACs of Bruton's Tyrosine Kinase for the Treatment of Lymphoma” (J Med Chem, 2022).
